Results from patent US9283222B2 (priority 2006, dated 2016).

Target: Recombinant Human Poly(ADP-Ribose) Polymerase (PARP), PARP-1 (Homo sapiens (Human), UniProt P09874)
Details: read-out: PARP-1 (Ki); Table 1; text calls the values EC50s
Description: Nicotinamide[2,5′,8-3H]adenine dinucleotide and strepavidin SPA beads were purchased from Amersham Biosiences. […] NAD^+, histone, aminobenzamide, 3-amino benzamide and Calf Thymus DNA (dcDNA) were purchased from Sigma. Stem loop oligonucleotide containing MCAT sequence was obtained from Qiagen. The oligos were dissolved to 1 mM in annealing buffer containing 10 mM Tris HCl pH 7.5, 1 mM EDTA, and 50 mM NaCl, incubated for 5 minutes at 95° C., and annealed at 45° C. for 45 minutes. […] Biotinylated histone H1 was prepared by treating the protein with Sulfo-NHS-LC-Biotin from Pierce. The biotinylation reaction was conducted by slowly and intermittently adding 3 equivalents of 10 mM Sulfo-NHS-LC-Biotin to 100 μM Histone H1 in phosphate-buffered saline, pH 7.5, at 4° C. with gentle vortexing over 1 minute followed by subsequent 4° C. incubation for 1 hour. Streptavidin coated (FlashPlate Plus) microplates were purchased from Perkin Elmer.
PARP1 assay was conducted in PARP assay buffer containing 50 mM Tris pH 8.0, 1 mM DTT, 4 mM MgCl2. […] Auto reactions utilizing SPA bead-based detection were carried out in 100 μL volumes in white 96 well plates.

Chain of Recombinant Human Poly(ADP-Ribose) Polymerase (PARP), PARP-1 (P09874 whole entry): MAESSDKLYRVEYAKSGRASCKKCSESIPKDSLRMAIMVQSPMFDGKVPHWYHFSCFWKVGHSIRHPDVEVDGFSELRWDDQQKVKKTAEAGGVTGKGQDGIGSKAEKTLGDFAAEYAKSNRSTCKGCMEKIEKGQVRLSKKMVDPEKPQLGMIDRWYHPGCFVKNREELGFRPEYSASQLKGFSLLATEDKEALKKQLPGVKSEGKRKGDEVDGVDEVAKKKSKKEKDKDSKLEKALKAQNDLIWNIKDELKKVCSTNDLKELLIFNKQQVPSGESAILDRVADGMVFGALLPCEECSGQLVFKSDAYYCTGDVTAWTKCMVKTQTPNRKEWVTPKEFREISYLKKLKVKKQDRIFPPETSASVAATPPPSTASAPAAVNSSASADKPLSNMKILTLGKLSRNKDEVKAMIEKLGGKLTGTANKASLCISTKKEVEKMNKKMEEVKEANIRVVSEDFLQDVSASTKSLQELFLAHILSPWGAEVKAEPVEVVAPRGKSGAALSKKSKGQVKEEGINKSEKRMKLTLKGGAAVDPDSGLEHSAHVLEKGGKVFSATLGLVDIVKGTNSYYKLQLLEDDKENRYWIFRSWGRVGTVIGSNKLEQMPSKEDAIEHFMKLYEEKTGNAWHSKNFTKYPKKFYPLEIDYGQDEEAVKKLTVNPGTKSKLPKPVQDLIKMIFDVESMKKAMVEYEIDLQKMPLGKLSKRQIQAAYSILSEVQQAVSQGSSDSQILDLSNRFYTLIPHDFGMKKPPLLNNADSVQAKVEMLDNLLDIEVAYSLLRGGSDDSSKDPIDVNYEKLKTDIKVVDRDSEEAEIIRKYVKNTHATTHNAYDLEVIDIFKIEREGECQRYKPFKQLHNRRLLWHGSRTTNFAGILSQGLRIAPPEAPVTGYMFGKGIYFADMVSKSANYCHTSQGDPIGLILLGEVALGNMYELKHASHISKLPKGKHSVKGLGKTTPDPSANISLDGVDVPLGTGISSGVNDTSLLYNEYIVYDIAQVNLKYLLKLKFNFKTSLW

Row | Ki | Compound
1 | 2.8 nM | COc1ccccc1N1CCN(C(=O)c2cc(Cc3n[nH]c(=O)c4c3NCCC4)ccc2F)CC1 [Example 631, 8-(4-fluoro-3-{[4-(2-methoxyphenyl)piperazin-1-yl]carbonyl}benzyl)-2,3,4,6-tetrahydropyrido[2,3-d]pyridazin-5(1H)-one]
2 | 21 nM | CCN(Cc1ccccc1)C(=O)c1cccc(Cc2n[nH]c(=O)c3c2CCCC3)c1 [Example 420, N-benzyl-N-ethyl-3-((4-oxo-3,4,5,6,7,8-hexahydrophthalazin-1-yl)methyl)benzamide]
3 | 1140 nM | CN(C)CCNC(=O)c1cccc(-c2cc(CCc3n[nH]c(=O)c4c3CCCC4)ccc2F)c1 [Example 271, N-(2-(dimethylamino)ethyl)-2′-fluoro-5′-(2-(4-oxo-3,4,5,6,7,8-hexahydrophthalazin-1-yl)ethyl)-1,1′-biphenyl-3-carboxamide]
4 | 151 nM | COc1cc(OC)c(NC(=O)c2cccc(Cc3n[nH]c(=O)c4c3CCCC4)c2)cc1Cl [Example 359, N-(5-chloro-2,4-dimethoxyphenyl)-3-((4-oxo-3,4,5,6,7,8-hexahydrophthalazin-1-yl)methyl)benzamide]
5 | 122 nM | CC(C)(C)c1cccc(NC(=O)c2cccc(Cc3n[nH]c(=O)c4c3CCCC4)c2)c1 [Example 335, N-(3-tert-butylphenyl)-3-((4-oxo-3,4,5,6,7,8-hexahydrophthalazin-1-yl)methyl)benzamide]
6 | 48 nM | O=C(NCCc1cccc(Cl)c1)c1cccc(Cc2n[nH]c(=O)c3c2CCCC3)c1 [Example 389, N-(2-(3-chlorophenyl)ethyl)-3-((4-oxo-3,4,5,6,7,8-hexahydrophthalazin-1-yl)methyl)benzamide]
7 | 159 nM | Cc1ccc(C(=O)Nc2cccc(Cc3n[nH]c(=O)c4c3CCCC4)c2)cc1F [Example 180, 3-fluoro-4-methyl-N-(3-((4-oxo-3,4,5,6,7,8-hexahydrophthalazin-1-yl)methyl)phenyl)benzamide]
8 | 25 nM | CC(C)(C)OC(=O)N1CCN(C(=O)c2cc(Cc3n[nH]c(=O)c4c3NCCC4)ccc2F)[C@H](c2ccccc2)C1 [Example 614, tert-butyl (3R)-4-{2-fluoro-5-[(5-oxo-1,2,3,4,5,6-hexahydropyrido[2,3-d]pyridazin-8-yl)methyl]benzoyl}-3-phenylpiperazine-1-carboxylate]
9 | 124 nM | CC(=O)N[C@@H](CC(C)C)C(=O)Nc1cccc(Cc2n[nH]c(=O)c3c2CCCC3)c1 [Example 157]
10 | 40 nM | CS(=O)(=O)c1nccc(Cc2n[nH]c(=O)c3c2CCCC3)n1 [Example 69, 4-((2-(methylsulfonyl)pyrimidin-4-yl)methyl)-5,6,7,8-tetrahydrophthalazin-1(2H)-one]
11 | 0.7 nM | CCS(=O)(=O)N1CCN(C(=O)c2cc(Cc3n[nH]c(=O)c4c3NCCC4)ccc2F)CC1 [Example 594]
12 | 205 nM | O=C(NN1CCCCCC1)c1cccc(Cc2n[nH]c(=O)c3c2CCCC3)c1 [Example 54, N-azepan-1-yl-3-((4-oxo-3,4,5,6,7,8-hexahydrophthalazin-1-yl)methyl)benzamide]
13 | 2 nM | CN(C)C(=O)CN1CCN(C(=O)c2cc(Cc3n[nH]c(=O)c4c3NCCC4)ccc2F)CC1 [Example 560, 2-(4-{2-fluoro-5-[(5-oxo-1,2,3,4,5,6-hexahydropyrido[2,3-d]pyridazin-8-yl)methyl]benzoyl}piperazin-1-yl)-N,N-dimethylacetamide]
14 | 556 nM | O=c1[nH]nc(CC2CNCCN2)c2c1CCCC2 (stereo not drawn) [Example 261, 4-(piperazin-2-ylmethyl)-5,6,7,8-tetrahydrophthalazin-1(2H)-one]
15 | 78 nM | O=C(CCc1ccccc1)Nc1cccc(Cc2n[nH]c(=O)c3c2CCCC3)c1 [Example 143, N-(3-((4-oxo-3,4,5,6,7,8-hexahydrophthalazin-1-yl)methyl)phenyl)-3-phenylpropanamide]
16 | 1.4 nM | CC(C)C(=O)N1CCN(C(=O)c2cc(Cc3n[nH]c(=O)c4c3NCCC4)ccc2F)CC1 [Example 565, 8-{4-fluoro-3-[(4-isobutyrylpiperazin-1-yl)carbonyl]benzyl}-2,3,4,6-tetrahydropyrido[2,3-d]pyridazin-5(1H)-one]
17 | 292 nM | O=C(Nc1cccc(Cc2n[nH]c(=O)c3c2CCCC3)c1)c1ccc(F)cc1F [Example 182, 2,4-difluoro-N-(3-((4-oxo-3,4,5,6,7,8-hexahydrophthalazin-1-yl)methyl)phenyl)benzamide]
18 | 92 nM | O=C(Nc1cccc(Cc2n[nH]c(=O)c3c2CCCC3)c1)c1cc(Br)ccc1Cl [Example 243, 5-bromo-2-chloro-N-(3-((4-oxo-3,4,5,6,7,8-hexahydrophthalazin-1-yl)methyl)phenyl)benzamide]
19 | 1.4 nM | O=C(NC1CCN(C(=O)c2cc(Cc3n[nH]c(=O)c4c3NCCC4)ccc2F)CC1)c1ccc2cn[nH]c2c1 [Example 749, N-(1-{2-fluoro-5-[(5-oxo-1,2,3,4,5,6-hexahydropyrido[2,3-d]pyridazin-8-yl)methyl]benzoyl}piperidin-4-yl)-1H-indazole-6-carboxamide]

Row | Ki | Compound
20 | 7 nM | O=C(NC1CCN(C(=O)c2cccnc2)CC1)c1cc(Cc2n[nH]c(=O)c3c2NCCC3)ccc1F [Example 724, 2-fluoro-5-[(5-oxo-1,2,3,4,5,6-hexahydropyrido[2,3-d]pyridazin-8-yl)methyl]-N-[1-(pyridin-3-ylcarbonyl)piperidin-4-yl]benzamide]
21 | 31 nM | O=C(c1cccc(Cc2n[nH]c(=O)c3c2CCCC3)c1)N(CCO)Cc1ccccc1 [Example 424, N-benzyl-N-(2-hydroxyethyl)-3-((4-oxo-3,4,5,6,7,8-hexahydrophthalazin-1-yl)methyl)benzamide]
22 | 0.1 nM | CC(=O)N1CCN(C(=O)c2cc(Cc3n[nH]c(=O)c4c3CCCC4)ccc2F)CC1 [Example 520, 4-{3-[(4-acetylpiperazin-1-yl)carbonyl]-4-fluorobenzyl}-5,6,7,8-tetrahydrophthalazin-1(2H)-one]
23 | 60 nM | O=C(NC1CCCNC1)c1cccc(Cc2n[nH]c(=O)c3c2CCCC3)c1 (stereo not drawn) [Example 57, 3-((4-oxo-3,4,5,6,7,8-hexahydrophthalazin-1-yl)methyl)-N-piperidin-3-ylbenzamide]
24 | 1880 nM | Nc1cc(Cc2n[nH]c(=O)c3cccnc23)ccc1F [Example 463, 8-(3-amino-4-fluorobenzyl)pyrido(2,3-d)pyridazin-5(6H)-one]
25 | 2 nM | O=C(c1cc(Cc2n[nH]c(=O)c3c2CCCC3)ccc1F)N1CCN(C(=O)N2CCOCC2)CC1 [Example 533, 4-(4-fluoro-3-{[4-(morpholin-4-ylcarbonyl)piperazin-1-yl]carbonyl}benzyl)-5,6,7,8-tetrahydrophthalazin-1(2H)-one]
26 | 1260 nM | CNC(=O)c1ncccc1Cc1n[nH]c(=O)c2c1CCCC2 [Example 95, N-methyl-3-((4-oxo-3,4,5,6,7,8-hexahydrophthalazin-1-yl)methyl)pyridine-2-carboxamide]
27 | 473 nM | CC(C)NC(=O)c1cc(Cc2n[nH]c(=O)c3c2CCCC3)ccn1 [Example 76, N-isopropyl-4-((4-oxo-3,4,5,6,7,8-hexahydrophthalazin-1-yl)methyl)pyridine-2-carboxamide]
28 | 1.3 nM | O=C(c1cc(Cc2n[nH]c(=O)c3c2CCCC3)ccc1F)N1CCC(O)CC1 [Example 503, 4-{4-fluoro-3-[(4-hydroxypiperidin-1-yl)carbonyl]benzyl}-5,6,7,8-tetrahydrophthalazin-1(2H)-one]
29 | 1.5 nM | O=C(c1cccnc1)N1CCN(C(=O)c2cc(Cc3n[nH]c(=O)c4c3NCCC4)ccc2F)CC1 [Example 661, 8-(4-fluoro-3-{[4-(pyridin-3-ylcarbonyl)piperazin-1-yl]carbonyl}benzyl)-2,3,4,6-tetrahydropyrido[2,3-d]pyridazin-5(1H)-one]
30 | 76 nM | CSc1ccc(NC(=O)c2cccc(Cc3n[nH]c(=O)c4c3CCCC4)c2)cc1 [Example 361, N-(4-(methylthio)phenyl)-3-((4-oxo-3,4,5,6,7,8-hexahydrophthalazin-1-yl)methyl)benzamide]
31 | 25 nM | O=C(NCCCN1CCOCC1)c1cccc(Cc2n[nH]c(=O)c3c2CCCC3)c1 [Example 317, N-(3-morpholin-4-ylpropyl)-3-((4-oxo-3,4,5,6,7,8-hexahydrophthalazin-1-yl)methyl)benzamide]
32 | 58 nM | COC(=O)c1cccc(CCc2n[nH]c(=O)c3c2CCCC3)c1 [Example 265, methyl 3-(2-(4-oxo-3,4,5,6,7,8-hexahydrophthalazin-1-yl)ethyl)benzoate]
33 | 31 nM | O=C(NCCc1ccc(Cl)cc1)c1cccc(Cc2n[nH]c(=O)c3c2CCCC3)c1 [Example 390, N-(2-(4-chlorophenyl)ethyl)-3-((4-oxo-3,4,5,6,7,8-hexahydrophthalazin-1-yl)methyl)benzamide]
34 | 610 nM | O=C(Nc1cccc(Cc2n[nH]c(=O)c3c2CCCC3)c1)c1ccccc1CCc1ccccc1 [Example 242, N-(3-((4-oxo-3,4,5,6,7,8-hexahydrophthalazin-1-yl)methyl)phenyl)-2-(2-phenylethyl)benzamide]
35 | 191 nM | O=C1CCCN1c1cc(-c2n[nH]c(=O)c3c2CCCC3)ccc1F [Example 491, 4-(4-fluoro-3-(2-oxopyrrolidin-1-yl)phenyl)-5,6,7,8-tetrahydrophthalazin-1(2H)-one]
36 | 96 nM | O=C(Nc1cccc(Cc2n[nH]c(=O)c3c2CCCC3)c1)c1cccc2ccccc12 [Example 230, N-(3-((4-oxo-3,4,5,6,7,8-hexahydrophthalazin-1-yl)methyl)phenyl)-1-naphthamide]
37 | 1 nM | CC(C)C(=O)N1CCN(C(=O)c2cc(Cc3n[nH]c(=O)c4c3CCCC4)ccc2F)CC1 [Example 579, 4-{4-fluoro-3-[(4-isobutyrylpiperazin-1-yl)carbonyl]benzyl}-5,6,7,8-tetrahydrophthalazin-1(2H)-one]

Row | Compound | Ki
38 | O=C(c1cc(Cc2n[nH]c(=O)c3c2CCCC3)ccc1F)N1CCN(c2ccccn2)CC1 [Example 529, 4-{4-fluoro-3-[(4-pyridin-2-ylpiperazin-1-yl)carbonyl]benzyl}-5,6,7,8-tetrahydrophthalazin-1(2H)-one] | 2 nM
39 | O=C(c1cccc(Cc2n[nH]c(=O)c3c2CCCC3)c1)N1CCN(c2ccccn2)CC1 [Example 441, 4-(3-((4-pyridin-2-ylpiperazin-1-yl)carbonyl)benzyl)-5,6,7,8-tetrahydrophthalazin-1(2H)-one] | 3 nM
